# According to patent US20230296625A1, “CXCL14 AS PREDICTIVE BIOMARKER FOR ACUTE LIVER FAILURE AND DEATH” (University of Kansas, priority 2022, published 2023):
# Where two headings read alike, the source gives them in different places.
# Columns and labels:
# [1] = test system: fasted male C57BL/6J mice; settings: mouse, in vivo
# Procedure: The liver and plasma samples were collected between 6-72 hours after acetaminophen exposure.
# ALT assay plasma alanine aminotransferase (ALT) activities were measured using an ALT test kit (Point Scientific, Inc, Canton, MI) per the manufacturer’s instruction.
# [2] = test system: acetaminophen overdose patients; settings: human, in vivo
# Procedure: A series of experiments were performed in order to evaluate the relevance of the findings from the mouse model (FIGS. 1A-1C), and whether the data can be relevant to humans. Plasma samples ([…]) were from acetaminophen overdose patients, where the plasma samples include 10 survivors with low injury, 30 survivors with high injury and 19 non-survivors. 10 healthy volunteer plasma samples were also obtained for comparison. Patients were categorized based on alanine amino transferase (ALT) level, with survivors with very mild ALT elevations at < 100 U/L categorized as low injury and survivors with peak ALT of 6200 U/L categorized as high injury.
# Since the time from acetaminophen exposure until the patient going to the clinic for treatment is highly variable, the day of peak ALT as day 1 was set for all patients to streamline data.
# We measured CXCL14 in plasma of acetaminophen-induced injury patients for three days. To make the data more reliable due to the complicated admission day and time of acetaminophen being taken, Day 1 is chosen as the day of peak ALT. We observed no CXCL14 increase in low injury patients (<100 pg/mL). […] In contrast, we found CXCL14 level is significant increased at day 1 (7000 pg/mL), but its level keep elevated by day 3 (8000 pg/mL) with a much higher level compared to the survivors (FIG. 2B). Next, we want to determine whether CXCL14 level in plasma can predict patient outcome.
# All results were expressed as mean ± SE. Comparisons between multiple groups were performed with one-way ANOVA or, where appropriate, by two-way ANOVA, followed by a post hoc Bonferroni test. If the data were not normally distributed, we used the Kruskal-Wallis Test (nonparametric ANOVA) followed by Dunn’s Multiple Comparisons Test. P < 0.05 was considered significant. Receiver operating characteristic analysis curve was performed to determine optimal threshold values to discriminate between survivors and non-survivors.
# [3] = test system: human liver; settings: in vivo
# Procedure: A western blot analysis on the removed liver from a transplant recipient after acetaminophen overdose was carried out to determine whether circulating CXCL14 levels also reflected levels within the human liver. […] Therefore, the biological sample can be a blood sample (or plasma) or a liver sample.
# Histology and Immunohistochemistry Formalin-fixed human and mouse tissue samples were embedded in paraffin and 5 µm sections were cut. Sections were stained with hematoxylin and eosin (H&E) for evaluation of the areas of necrosis. Additional liver sections were hydrated and went through antigen retrieval by boiling in sodium citrate buffer (pH 6.0). Liver sections were blocked in 3% BSA and serum then incubated with the primary antibodies overnight. Primary antibodies included anti-rabbit CD68 (Cell Signaling Technology, cat # 26042). Liver sections were washed and incubated in 3% hydrogen peroxide to block endogenous peroxidases. Biotinylated secondary antibody and DAB substrate were used to visualize the signals. Immunofluorescence staining was performed using 5 µm cryosections prepared from OCT-embedded tissue. Sections were blocked with 3% BSA and stained with anti-rabbit CXCL14 (Abcam, cat #264467). Fluorescence conjugated secondary antibodies Alexa Fluor 488 (Invitrogen, cat #A11034) goat anti rabbit was used.
# Western blotting snap frozen tissue was homogenized in a CHAPs containing protein buffer and total protein was measured using the BCA assay (Pierce Scientific, Waltham, Massachusetts). Gel electrophoresis was carried out on protein lysates from individual samples, which were then transferred to a nitrocellulose blot.
smiles,measurement,setting,value
"CC(=O)Nc1ccc(O)cc1 [acetaminophen, N-acetyl-p-aminophenol]",plasma ALT levels,[1]; 300 mg/kg,return to baseline in both doses by 72 hours
same,plasma ALT levels,[1]; 600 mg/kg,return to baseline in both doses by 72 hours
same,ALT elevations,[2],< 100 U/L
same,bilirubin,[2],12.5 mg/dL
same,prothrombin times,[2],significantly higher
same,ALT,[3],1620.9 U/L
same,hepatic levels of CXCL14 (western blot),[3],Elevation in hepatic levels of CXCL14 are evident
same,macrophage staining with CD68,[3],significant increase in macrophage staining
same,necrosis by H&E staining,[3],significant areas of necrosis
same,staining for CXCL14 in liver sections,[3],significant elevations
